Results as given in patent US5789188A, “Tetracycline-efflux pump inhibitor screening methods” (priority 1996, dated 1998).
≈ marks a conversion by molar mass, not a printed value. Entries after “also recorded” stand apart in the source; their conditions may differ. Like-named read-outs stand apart in the source and are kept apart here.

Tests used:
[1] = tested on: strain KB4; assay: microbe, parasite or virus in culture; conditions: Escherichia coli, read-out: tetracycline resistance conferred
[2] = tested on: strains containing pCB258; assay: microbe, parasite or virus in culture; conditions: Escherichia coli
[3] = tested on: E. coli MC1061 containing pGG75; assay: MIC (LD 90) of maximally induced tetC (plasmid pGG75); type: cell-based; conditions: Escherichia coli, read-out: MIC (LD 90) of Maximally Induced tetC, pGG75
Method: (§1) E. coli MC1061 containing either pGG57, pCBSal or pGG75 were used to determine the MIC (LD 90) for tetracycline as well as six tetracycline analogs. […] MIC studies were performed in the presence of 0.01 mM IPTG for E. coli MC1061 containing pGG57. […] All of these MIC studies were done in duplicate.

[4] = tested on: tetracycline efflux pump (strain KB4 or KB5); assay: Inhibition Assay, plate assay (agar with 5 ng/ml of tetracycline); type: cell-based, E. coli; conditions: for Tetracycline Detection, amount detected in Inhibition plate assay: strain KB4 or KB5, spotted on plate; for response in the Inhibition Assay: 5 ng/ml of tetracycline
Method: (§2) To detect tetracyclines, a plate assay is developed that is similar to one described previously (11). Cells are grown in Luria Broth (adjusted with NaOH to pH 7.5) with 25 μg/ml of kanamycin to a cell density of 0.5 absorbance units (600 nm). A 25 ml sample of the culture is harvested by centrifugation and resuspended in 1 ml of broth. The cells are mixed with 25 ml of soft agar (1%, wt/vol) and poured onto 100 ml of LB (pH 7.5)+ kanamycin, within a 22 cm^2 NUNC plate (Corning). Samples are applied by spotting from 2 to 15 μl, or by applying a disc impregnated with a compound, and the plate is incubated for 3-4 hours at 37° C. The plates are overlaid with a solution containing 13.5 mg of 6-bromo-2-naphthyl-β-D-galactopyranoside side and 86.5 mg of fast blue RR (Sigma) dissolved in 2 ml of dimethylsulfoxide, to which 25 ml of soft agar is added. β-Galactosidase is detected by the presence of a purple spot.
Two assays are developed for detecting inhibitors of the tetA gene product (using strain KB5), or the tetK gene product (using strain KB4). In the Inhibition Assay, cells of strain KB4 or KB5 are treated as described in the tetracycline screen above, except that the agar medium contains 5 ng/ml of tetracycline. Alternatively a Liquid Assay is also developed. Cells are first grown in LB (pH 7.5). Then cells are shifted to medium containing 5 ng/ml of tetracycline, and tetracycline-containing samples are added to aliquots. Cells are then incubated and assayed as described for the Tetracycline Assay. […] However, the intracellular concentration is reduced in tetracycline resistant strains due to the action of the efflux pump, so more tetracycline would be required in the medium to accumulate sufficient tetracycline inside the cell to induce. The Inhibition Assay is designed to detect compounds that cause β-galactosidase induction in the presence of sub-inducing levels of tetracycline for a resistant strain.

[5] = tested on: E. coli MC1061 containing pGG57; assay: microbe, parasite or virus in culture; type: cell-based; conditions: Escherichia coli
Method: as §1

[6] = tested on: strain KB5; assay: MIC of strain KB5; type: cell-based, E. coli; conditions: Escherichia coli
[7] = tested on: Tn10 derivative of KB3ind; assay: microbe, parasite or virus in culture; conditions: Escherichia coli, read-out: tetracycline resistance
[8] = tested on: strain MC1061 with plasmid pGG58; assay: microbe, parasite or virus in culture; conditions: Escherichia coli, read-out: tetracycline resistance
[9] = tested on: Tn10 derivative of strain KB3ind; assay: Induction in liquid culture, Tn10 strain; type: cell-based, E. coli; conditions: Escherichia coli, read-out: concentration for full induction of β-galactosidase, Tn10 strain, liquid culture
Method: (§3) Cells are added to tetracycline to the final concentration indicated as described in FIG. 7. The sensitive strain is the tetracycline screening organism KB3ind, which induces fully when grown in the presence of 5-10 ng/ml of tetracycline. In contrast, the strain containing the Tn10 element, conferring strong tetracycline resistance, induces fully when the concentration of tetracycline is above 1 μg/ml.
(§4) Alternatively, a liquid assay is also used. Cells are grown in LB (pH 7.5), and tetracycline-containing samples are added to aliquots when the density of the culture is 0.1 OD units. After 3-4 generations of the cells, each aliquot is measured for β-galactosidase activity as described (10, 12) and Miller Units (12) are determined. […] For both the plate and liquid assays, this strain is more sensitive than a previously reported screening organism (11).

[10] = tested on: E. coli MC1061 containing pCBSal; assay: MIC (LD 90) of maximally induced tetA (plasmid pCBSal); type: cell-based; conditions: Escherichia coli, read-out: MIC (LD 90) of Maximally Induced tetA, pCBSal
Method: as §1

[11] = tested on: strain KB4; assay: Induction in liquid culture, strain KB4; type: cell-based, E. coli; conditions: Escherichia coli, read-out: concentration for full induction of β-galactosidase
Method: as §3, §4

[12] = tested on: strain KB3ind; type: cell-based, E. coli; conditions: strain KB3ind; plate assay (plate or liquid assay)
Method: as §2

[13] = tested on: strain KB3ind; assay: Tetracycline liquid assay (β-galactosidase, Miller Units); type: cell-based, E. coli; conditions: Escherichia coli
Method: as §4

[14] = tested on: strain KB4 or KB5; assay: Synergy Assay, plate assay (agar with 5 μg/ml of tetracycline); type: cell-based, E. coli; conditions: for response in the Synergy Assay: 5 μg/ml of tetracycline
Method: Two types of assays for pump inhibitors are designed using this type of screening organism. The first is a Synergy Assay, which determines the ability of a compound or composition to kill the organism in combination with tetracycline. […] In brief, in a Synergy Assay, the screening cells are treated as described above for the tetracycline assay, except that the agar medium contains 5 μg/ml of tetracycline which is near the MIC for the strains to be used in the screen. […] Alternatively, cells are treated as described above for the tetracycline liquid assay, except that cells are shifted to a medium containing 5 μg/ml of tetracycline.
(§5) In the Synergy Assay, cells are treated as above for the plate assay, except that agar medium contains 5 μg/ml of tetracycline, near the MIC for strain KB4 or KB5. […] Alternatively, cells are treated as above for the liquid assay, except that cells are shifted to medium containing 5 μg/ml of tetracycline.

[15] = tested on: strain KB4; assay: Growth in LB medium with nocardamine, strain KB4; type: cell-based, E. coli; conditions: strain KB4, 5 μg/ml of tetracycline
Method: (§6) Cells are grown in LB medium lacking tetracycline, as described in the text, and then aliquots are added to medium containing no tetracycline, or a sub-inhibitory concentration for the particular strain. Nocardamine (μg/ml) is present or absent as indicated.

[16] = tested on: strain KB3ind; assay: Growth in LB medium with nocardamine, strain KB3ind; type: cell-based, E. coli; conditions: tetracycline-sensitive strain KB3ind, 0.5 μg/ml of tetracycline
Method: FIG. 10 (Parts A, B and C) illustrates the effect of nocardamine on the growth of tetracycline sensitive and resistant cells. Cells are grown in LB medium lacking tetracycline, as described in the text, and then aliquots are added to medium containing no tetracycline, or a sub-inhibitory concentration for the particular strain. Nocardamine (μg/ml) is present or absent as indicated. For strain KB3ind, the tetracycline-sensitive strain, the sub-inhibitory concentration of tetracycline is 0.5 μg/ml. For the Tn10 derivative of strain KB3ind, 20 μg/ml of tetracycline is the sub-inhibitory level. For strain KB4, the modestly tetracycline-resistant organism, 5 μg/ml of tetracycline is the sub-inhibitory concentration.

[17] = tested on: Tn10 derivative of strain KB3ind; assay: Growth in LB medium with nocardamine, Tn10 strain; type: cell-based, E. coli; conditions: for effect on growth in combination with tetracycline: Tn10 strain, 20 μg/ml or 25 μg/ml of tetracycline; for effect on growth, tetracycline absent: no tetracycline in medium
Method: as §6

[18] = tested on: strain KB4 or KB5; assay: Synergy Assay, liquid assay (5 μg/ml of tetracycline); type: cell-based, E. coli; conditions: liquid culture
Method: Inhibitory activity is assayed in liquid culture by growing strain KB4 in medium lacking tetracycline and then transferring to medium containing 5 ng/ml of tetracycline, a sub-inducing level of tetracycline due to the action of the efflux pump. Nocardamine is also added as indicated. After 4 generations of growth, the specific activity of β-galactosidase is determined in Miller Units (10). […] Alternatively, aliquots of KB4 are transferred to a medium containing 5 μg/ml of tetracycline and the nocardamine concentration indicated.
as §5

`CN(C)C1C(=O)C(C(N)=O)=C(O)C2(O)C(=O)C3=C(O)c4c(O)cccc4C(C)(O)C3CC12` (stereo not shown) [Tetracycline] showed an MIC [1] of under 10 µg/mL, an MIC ([2]; PCB258) of 50 µg/mL (≈ 113 µM) and an MIC ([2]; PCB258, read-out: tetracycline resistance conferred) of 40 µg/mL (≈ 90 µM). For the same compound, the MIC [3] was 100 µg/mL (≈ 225 µM), the “Tetracycline Detection, amount detected in Inhibition plate assay” value [4] was at least 1 ng and the “Tetracycline Detection, amount detected in Inhibition plate assay” value ([4]; listed as tetracycline) was 1 ng. The MIC ([5]; read-out: MIC (LD 90) of Maximally Induced tetK, pGG57) was 125 µg/mL (≈ 281 µM), the MIC ([5]; read-out: tetracycline resistance conferred) was 25 µg/mL (≈ 56.3 µM) and the MIC [6] was about 10 µg/mL. The MIC [7] was over 100 µg/mL, the MIC [8] was 15 µg/mL (≈ 33.8 µM) and the EC (full induction) [9] was over 1 µg/mL. For the same compound, the MIC [10] was 150 µg/mL (≈ 338 µM), the EC (full induction) [11] was 0.03 µg/mL and the “response in the Tetracycline Assay (β-galactosidase induction)” value [12] was “capable of detecting”. The EC (full induction) ([13]; liquid culture, read-out: concentration for full induction of β-galactosidase) was 0.005 to 0.01 µg/mL and the minimal effective concentration ([13]; read-out: lowest concentration detected in liquid assay) was 0.0001 µg/mL.
With `O=C1CCC(=O)N(O)CCCCCNC(=O)CCC(=O)N(O)CCCCCNC(=O)CCC(=O)N(O)CCCCCN1` [nocardamine] the “response in the Inhibition Assay” value ([4]; plate assay) was “induction”, the “response in the Inhibition Assay” value ([4]; plate assay, listed as Nocardamine) was “detected” and the “amount sufficient to detect activity in the Inhibition Assay” value ([4]; plate assay, strains KB4 and KB5) was “One”. For the same compound, the “response in the Synergy Assay” value [14] was “differential growth inhibition”, the “response in the Synergy Assay” value ([14]; listed as Nocardamine) was “detected” and the “amount sufficient to detect activity in the Synergy Assay” value ([14]; strains KB4 and KB5) was “One”. The “effect on growth in combination with tetracycline” value (“effect on growth in combination” below) [15] was “severe growth inhibition”, the “effect on growth in combination” value [16] was “affects the growth; also recorded: is affected” and the “effect on growth in combination” value [17] was “severe growth inhibition; also recorded: inhibits growth”. The “effect on growth in combination” value ([17]; listed as Nocardamine) was “inhibits the growth”, the “effect on growth, tetracycline absent” value [17] was “little or no effect” and the “effect on growth, tetracycline absent” value ([17]; listed as Nocardamine) was “little effect”. For the same compound, the “response in the Tetracycline Assay (β-galactosidase induction)” value [12] was “no response” and the “effect on β-galactosidase production / growth” value [18] was “marked decrease in β-galactosidase; also recorded: growth inhibition”.
